In article PMC9848287, “Novel thiazolone-benzenesulphonamide inhibitors of human and bacterial carbonic anhydrases” (Journal of Enzyme Inhibition and Medicinal Chemistry, 2023):

How the values were obtained:
Assay in all cases: stopped-flow CO2 hydrase assay
[1] = molecular target: T1, MscCAβ (Mammaliicoccus sciuri, UniProt A0AAJ4SIE8); assay type: biochemical; conditions: CO2 hydration, […] TRIS pH […] Na2SO4, […] min preincubation at room temperature
T1 construct: gene OWO77_14055; recombinant, obtained in-house
T1 sequence (A0AAJ4SIE8 1-189): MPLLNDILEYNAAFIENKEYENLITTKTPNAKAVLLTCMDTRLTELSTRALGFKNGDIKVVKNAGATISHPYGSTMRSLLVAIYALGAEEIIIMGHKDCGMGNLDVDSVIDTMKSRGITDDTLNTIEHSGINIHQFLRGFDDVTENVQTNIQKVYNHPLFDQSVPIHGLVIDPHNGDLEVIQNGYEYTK

[2] = molecular target: T2, hCA I (Homo sapiens, UniProt P00915); assay type: biochemical
T2 construct: gene CA1; recombinant, obtained in-house
Source text: stopped-flow CO2 hydrase assay on hCA I

[3] = molecular target: T3, StCA1; assay type: biochemical, Salmonella enterica subsp. enterica serovar Typhimurium; conditions: CO2 hydration, […] TRIS pH […] Na2SO4, […] min preincubation at room temperature
T3 construct: recombinant, obtained in-house

[4] = molecular target: T4, hCA VII (Homo sapiens, UniProt P43166); assay type: biochemical
T4 construct: gene CA7; recombinant, obtained in-house
Source text: stopped-flow CO2 hydrase assay on hCA VII

[5] = molecular target: T5, hCA II (Homo sapiens, UniProt P00918); assay type: biochemical
T5 construct: gene CA2; recombinant, obtained in-house
Source text: stopped-flow CO2 hydrase assay on hCA II

[6] = molecular target: T6, StCA2 (Salmonella enterica, UniProt O30898); assay type: biochemical; conditions: CO2 hydration, […] TRIS pH […] Na2SO4, […] min preincubation at room temperature
T6 construct: gene mig-5; recombinant, obtained in-house
T6 sequence (O30898 41-246): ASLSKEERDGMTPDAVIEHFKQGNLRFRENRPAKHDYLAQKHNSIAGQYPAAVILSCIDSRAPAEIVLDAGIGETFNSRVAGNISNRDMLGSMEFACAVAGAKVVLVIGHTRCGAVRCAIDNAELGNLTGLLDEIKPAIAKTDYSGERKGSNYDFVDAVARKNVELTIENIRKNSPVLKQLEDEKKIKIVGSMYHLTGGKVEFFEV

T2 sequence (P00915 2-261): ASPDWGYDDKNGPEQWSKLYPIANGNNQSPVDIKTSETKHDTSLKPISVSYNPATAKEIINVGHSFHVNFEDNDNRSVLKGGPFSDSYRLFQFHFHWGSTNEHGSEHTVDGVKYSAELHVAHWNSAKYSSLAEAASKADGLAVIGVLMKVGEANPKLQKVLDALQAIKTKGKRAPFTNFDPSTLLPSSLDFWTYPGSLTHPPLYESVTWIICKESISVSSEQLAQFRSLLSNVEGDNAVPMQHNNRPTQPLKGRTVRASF
T4 sequence (P43166 whole entry): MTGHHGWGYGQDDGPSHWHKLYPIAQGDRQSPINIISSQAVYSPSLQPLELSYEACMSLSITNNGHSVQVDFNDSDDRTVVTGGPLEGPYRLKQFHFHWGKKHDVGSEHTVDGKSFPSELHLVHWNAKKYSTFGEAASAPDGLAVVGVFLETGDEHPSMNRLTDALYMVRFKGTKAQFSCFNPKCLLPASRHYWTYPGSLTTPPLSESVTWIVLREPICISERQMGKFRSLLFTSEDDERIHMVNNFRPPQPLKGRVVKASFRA

Compound: NS(=O)(=O)c1ccc(NC2=NC(=O)C(F)S2)cc1 (racemic) [4j, 4-((5-Fluoro-4-oxo-4,5-dihydrothiazol-2-yl)amino)benzenesulphonamide]
- Ki [1]: 849 nM
- Ki [2]: 138 nM
- Ki [3]: 90.9 nM
- Ki [4]: 1.9 nM
- Ki [5]: 3.7 nM
- Ki [6]: 956 nM

Compound: CCCCC1SC(Nc2ccc(S(N)(=O)=O)cc2)=NC1=O (racemic) [4f, 4-((5-Butyl-4-oxo-4,5-dihydrothiazol-2-yl)amino)benzenesulphonamide]
- Ki [1]: 2420 nM
- Ki [2]: 75 nM
- Ki [3]: 72.4 nM
- Ki [4]: 6.2 nM
- Ki [5]: 3.2 nM
- Ki [6]: 904 nM

Compound: CCCC1SC(Nc2ccc(S(N)(=O)=O)cc2)=NC1=O (racemic) [4d, 4-((4-Oxo-5-propyl-4,5-dihydrothiazol-2-yl)amino)benzenesulphonamide]
- Ki [1]: 73.6 nM
- Ki [2]: 70.7 nM
- Ki [3]: 83.3 nM
- Ki [4]: 2 nM
- Ki [5]: 2.3 nM
- Ki [6]: 913 nM

Compound: NS(=O)(=O)c1ccc(NC2=NC(=O)C(CCBr)S2)cc1 (racemic) [4i, 4-((5-(2-Bromoethyl)-4-oxo-4,5-dihydrothiazol-2-yl)amino)benzenesulphonamide]
- Ki [1]: 925 nM
- Ki [2]: 74.6 nM
- Ki [3]: 69.2 nM
- Ki [4]: 2.1 nM
- Ki [5]: 2.2 nM
- Ki [6]: 515 nM

Compound: NS(=O)(=O)c1ccc(NC2=NC(=O)C(c3ccccc3)S2)cc1 (racemic) [4h, 4-((4-Oxo-5-phenyl-4,5-dihydrothiazol-2-yl)amino)benzenesulphonamide]
- Ki [1]: 1060 nM
- Ki [2]: 90.4 nM
- Ki [3]: 163 nM
- Ki [4]: 7.3 nM
- Ki [5]: 1.3 nM
- Ki [6]: 797 nM

Compound: NS(=O)(=O)c1ccc(NC2=NC(=O)CS2)cc1 [4a, 4-((4-Oxo-4,5-dihydrothiazol-2-yl)amino)benzenesulphonamide]
- Ki [1]: 787 nM
- Ki [3]: 82.4 nM
- Ki [4]: 1.4 nM
- Ki [6]: 275 nM

Compound: CC1SC(Nc2ccc(S(N)(=O)=O)cc2)=NC1=O (racemic) [4b, 4-((5-Methyl-4-oxo-4,5-dihydrothiazol-2-yl)amino)benzenesulphonamide]
- Ki [1]: 481 nM
- Ki [2]: 31.5 nM
- Ki [3]: 89.9 nM
- Ki [4]: 0.9 nM
- Ki [5]: 4.3 nM
- Ki [6]: 538 nM

Compound: CC(C)C1SC(Nc2ccc(S(N)(=O)=O)cc2)=NC1=O (racemic) [4e, 4-((5-Isopropyl-4-oxo-4,5-dihydrothiazol-2-yl)amino)benzenesulphonamide]
- Ki [1]: 701 nM
- Ki [2]: 85.4 nM
- Ki [3]: 81.1 nM
- Ki [4]: 7.5 nM
- Ki [5]: 7.3 nM
- Ki [6]: 867 nM

Compound: CCC1SC(Nc2ccc(S(N)(=O)=O)cc2)=NC1=O (racemic) [4c, 4-((5-Ethyl-4-oxo-4,5-dihydrothiazol-2-yl)amino)benzenesulphonamide]
- Ki [1]: 411 nM
- Ki [2]: 66.6 nM
- Ki [3]: 86.1 nM
- Ki [4]: 1.2 nM
- Ki [5]: 3.8 nM
- Ki [6]: 481 nM

Compound: CCCCCCC1SC(Nc2ccc(S(N)(=O)=O)cc2)=NC1=O (racemic) [4g, 4-((5-Hexyl-4-oxo-4,5-dihydrothiazol-2-yl)amino)benzenesulphonamide]
- Ki [1]: 4030 nM
- Ki [2]: 637 nM
- Ki [3]: 83.6 nM
- Ki [4]: 14.6 nM
- Ki [5]: 13.7 nM
- Ki [6]: 4880 nM
